Results: patent US10501805B2, “Methods for determining responsiveness to MEK/ERK inhibitors” (CROWN BIOSCIENCE, INC. (TAICANG), priority 2014, dated 2019)

How the values were obtained:
Assay in all cases: CellTiter-Glo cell viability, IC50 determination
Format in all cases: cell-based
NCI-H1651 = conditions: Homo sapiens, 72 h; NCI-H1651 cell line; 3-day CTG assay; read-out: Absolute IC50
Method in brief: (§1)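 Cells were seeded at 4×10^3 cells/well in medium with 10% FBS, left overnight at 37 °C and 5% CO2, then treated in triplicate on Day 0. On Day 3, viability was read by CellTiter-Glo luminescence. Absolute IC50 is where a sigmoidal nonlinear fit crosses 50% surviving rate.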

NCI-H460 = conditions: Homo sapiens, 72 h; NCI-H460 cell line; 3-day CTG assay; read-out: Absolute IC50
Method in brief: as §1

A2058 = conditions: Homo sapiens, 72 h; A2058 cell line; 3-day CTG assay; read-out: Absolute IC50
Method in brief: as §1

NCI-H1155 = conditions: Homo sapiens, 72 h; NCI-H1155 cell line; 3-day CTG assay; read-out: Absolute IC50
Method in brief: as §1

NCI-H1703 = conditions: Homo sapiens, 72 h; NCI-H1703 cell line; 3-day CTG assay; read-out: Absolute IC50
Method in brief: as §1

NCI-H441 = conditions: Homo sapiens, 72 h; NCI-H441 cell line; 3-day CTG assay; read-out: Absolute IC50
Method in brief: as §1

SW480 = conditions: Homo sapiens, 72 h; SW480 cell line; 3-day CTG assay; read-out: Absolute IC50
Method in brief: as §1

Compound | IC50 (NCI-H1651) [µM] | IC50 (NCI-H460) [µM] | IC50 (A2058) [µM] | IC50 (NCI-H1155) [µM] | IC50 (NCI-H1703) [µM] | IC50 (NCI-H441) [µM] | IC50 (SW480) [µM]
O=C(Nc1ccc2[nH]nc(-c3ccncc3)c2c1)[C@@H]1CCN(CC(=O)N2CCN(c3ccc(-c4ncccn4)cc3)CC2)C1 [SCH772984, (R)-1-(2-oxo-2-(4-(4-(pyrimidin-2-yl)phenyl)piperazin-1-yl)ethyl)-N-(3-(pyridin-4-yl)-1H-indazol-5-yl)pyrrolidine-3-carboxamide] | 48.8 | 5.53 |  |  |  |  | 
CC(=O)Nc1cccc(-n2c(=O)n(C3CC3)c(=O)c3c(Nc4ccc(I)cc4F)n(C)c(=O)c(C)c32)c1 [Trametinib, N-(3-{3-Cyclopropyl-5-[(2-fluoro-4-iodophenyl)amino]-6,8-dimethyl-2,4,7-trioxo-3,4,6,7-tetrahydropyrido[4,3-d]pyrimidin-1(2H)-yl}phenyl)acetamide] |  |  | 0.12 | 636 | 15 | 325 | 6.65
